Data: US20100040607A1, “Combination Therapy with Inhibitors of HMGB and Caspase for the Treatment of Inflammatory Diseases” (priority 2005, published 2010)
Peptide text beside a SMILES is read from it. * marks the point of attachment. Cbz = O=C(OCc1ccccc1)*; CH2F = FC*

What was measured:
IL-6, KC, MIP-2 = test: Cytokine levels (IL-6, KC, MIP-2) in serum and BAL of CLP septic mice by ELISA; assay type: in vivo, BALB/c mice; conditions: 0.5 mg IP at 90 min after surgery, 24 h
Experimental: (§1) Cecal ligation and puncture (CLP) surgery was performed on BALB/c mice to induce sepsis as described previously (Fink, M. P. and Heard, S. O., J. Surg. Res. 49:186-96 (1990); Friedman, G., et al., Crit. Care Med. 26:2078-86 (1998); Remick, D., et al., Shock 4:89-95 (1995)). At 90 min after the surgery, 0.5 mg of either Z-VAD-FMK (VAD) caspase inhibitor or Z-FA-FMK control peptide was administered to each mouse by intraperitoneal injection. Mice were euthanized 24 h after CLP. HMGB1 protein levels in bronchoalveolar fluid (BAL), peritoneal fluid and serum were measured (FIG. 6). Protein levels of certain serum (e.g., IL-6, KC, MIP-2) and BAL (e.g., KC, MW-2) cytokines were determined (FIG. 7). Cell-conditioned medium, lung lavage fluid or peritoneal lavage fluid (100-2000) were first concentrated by passing through Centricon 10 (Millpore Corp. Bedford, Mass.). Cytokines were measured by using an enzyme-linked immunosorbent assay (ELISA) kit according to the instructions of the manufacturer (R & D System Inc., Minneapolis, Minn.). To determine HMGB1 concentrations, Centricon 10-filtered samples were fractionated by SDS-PAGE, transferred to PVDF Immunoblot membrane (Bio-Rad laboratories, Hercules, Calif.), and probed with polyclonal anti-HMGB1 IgG (5 μg/ml) for Western blot. Donkey anti-rabbit IgG conjugated with HRP (Amersham, Little Chalfont Buckinghamshire, England) and used at final dilution of 1:5,000. Polyclonal antibodies raised against purified HMGB1 were generated in rabbits (Cocalico Biologicals, Inc., Reamstown, Pa.) and IgG was purified using protein A agarose according to manufacturer's instructions (Pierce, Rockford, Ill.). Western blots were scanned with a silver image scanner ([…] Limited, Beaverton, Oreg.), and the relative band intensity was quantified by using the NIH image 1.59° software. The levels of HMGB1 were calculated with reference to standard curves generated with purified HMGB1.

apoptotic cells = test: Caspase 3 and TUNEL staining of spleen and thymus sections of CLP septic mice; assay type: in vivo, BALB/c mice; conditions: 0.5 mg IP at 90 min after surgery, 24 h
Experimental: Cecal ligation and puncture (CLP) surgery was performed on BALB/c mice to induce sepsis as described previously (Fink, M. P. and Heard, S. O., J. Surg. Res. 49:186-96 (1990); Friedman, G., et al., Crit. Care Med. 26:2078-86 (1998); Remick, D., et al., Shock 4:89-95 (1995)). At 90 min after the surgery, 0.5 mg of either Z-VAD-FMK (VAD) caspase inhibitor or Z-FA-FMK control peptide was administered to each mouse by intraperitoneal injection. Mice were euthanized 24 h after CLP.
Apoptotic cells were detected by performing Caspase 3 staining (FIG. 8A) and TUNEL staining (FIG. 8B) on fixed spleen and thymus sections from sacrificed mice that were either untreated (Normal) or treated with Z-VAD-FMK (VAD) caspase inhibitor (CLP+VAD) or Z-FA-FMK control peptide (CLP+ctrl) following CLP surgery. […] mice were analyzed in each group. Tissue sections were cut at 5 μm. Sections were placed on glass slides and subjected to staining using a TUNEL assay, performed according to manufacturer's protocol (ApoAlert DNA fragmentation assay kit, BD BioSciences, Palo Alto, Calif., Cat# K2024-1). […] Four to five mice were analyzed from each group.

RAW 264.7 cells [1] = test: HMGB1 translocation in LPS-treated RAW 264.7 cells by immunofluorescence; assay type: cell-based, Murine; conditions: LPS 100 ng/ml, 1 μM, 16 hours
Experimental: RAW 264.7 cells were plated in 8-well slide chambers (Lab-Tek, Nalge Nunc Internationals, Naperville, Ill.) and used at 60% confluence. Cells were incubated with LPS (100 ng/ml) alone, or LPS (100 ng/ml) with either 1 μM Z-VAD-FMK (VAD) or Z-FA-FMK control peptide for 16 hours in Opti-MEM I medium. Cells were washed 3 times with phosphate-buffered saline (PBS) at pH 7.2 and fixed in 2% neutral formalin for 20 minutes at room temperature. Polyclonal anti-HMGB1 antibody was added at a concentration of 2.5 μg/ml and incubated for an additional 30 minutes at room temperature. FITC-labeled anti-rabbit IgG was added (1:300 dilution, Sigma, St. Louis, Mo.; Cat. No. F9887). Cells were then washed 3 times with PBS (pH 7.2) with 0.1% saponin (Sigma Cat. #S4521), and mounted for fluorescent confocal microscopy analysis. To mount cells on a slide, one drop of VECTASHIELD mounting medium (Vector Lab, Cat#H-10000) was dispensed on to the section and allowed to cover the entire section. A coverslip was added, and the slides were imaged using a Zeiss, Axiovert 200 microscope (Gottingen, Germany).

HMGB1 = HMGB1 protein levels in BAL, peritoneal fluid and serum of CLP septic mice; assay type: in vivo, BALB/c mice; conditions: 0.5 mg IP at 90 min after surgery, 24 h, BAL fluid
Experimental: as §1, with “To determine HMGB1 concentrations, Centricon 10-filtered samples were fractionated by SDS-PAGE, transferred to PVDF Immunoblot membrane (Bio-Rad laboratories, Hercules, Calif.), and probed with polyclonal anti-HMGB1 IgG (5 μg/ml) for Western blot. Donkey anti-rabbit IgG conjugated with HRP (Amersham, Little Chalfont Buckinghamshire, England) and used at final dilution of 1:5,000. Polyclonal antibodies raised against purified HMGB1 were generated in rabbits (Cocalico Biologicals, Inc., Reamstown, Pa.) and IgG was purified using protein A agarose according to manufacturer's instructions (Pierce, Rockford, Ill.).” left out

RAW 264.7 cells [2] = test: LPS-induced HMGB1 protein in RAW 264.7 cell supernatants by Western blot; assay type: cell-based, Murine; conditions: LPS 200 ng/ml, 0.1 to 10 μM, 16 h
Experimental: Treatment of RAW 264.7 cells with caspase inhibitor and Western blotting of HMGB1. Murine macrophage-like RAW 264.7 cells (American Type Culture Collection, ATCC, Rockville, Md.) were cultured in a 24-well culture dish in RPMI 1640 medium (Life Technologies, Grand Island, N.Y.), supplemented with 10% fetal bovine serum (Gemini, Catabasas, Calif.), penicillin and streptomycin (Life Technologies). Cells were used at 90% confluence and treatment was carried out in serum-free Opti-MEM I medium (Life Technologies). The cells were treated with LPS (200 ng/ml, Sigma, E. coli. 0111:B4) and various concentrations, ranging from 0.1 to 10 μM, of either the caspase inhibitor, Z-VAD-FMK (BD Biosciences), or a control peptide, Z-FA-FMK (BD Biosciences), in Opti-MEM I medium (Life Technologies, Grand Island, N.Y.). After 16 h, cell culture supernatants were concentrated by Centricon 10 (Millpore Corp., Bedford, Mass.) and HMGB1 levels were determined by Western blot. […] Western blots were scanned with a silver image scanner (Silverscanner II, Lacie Limited, Beaverton, Oreg.), and the relative band intensity was quantified using the NIH image 1.59 software. The levels of HMGB1 were calculated with reference to standard curves generated with purified HMGB1.

COC(=O)CC(NC(=O)C(C)NC(=O)C(NC(=O)OCc1ccccc1)C(C)C)C(=O)CF (stereo not drawn) [Z-VAD-FMK, carbobenzoxyl-valyl-alanyl-aspartyl-[O-methyl]-fluoromethylketone] (Cbz-Val-Ala-Asp(OMe)-CH2F; configuration not given here)
IL-6 expression in septic mice (IL-6, KC, MIP-2): inhibited expression
KC expression in septic mice (IL-6, KC, MIP-2): inhibited expression
MIP-2 expression in septic mice (IL-6, KC, MIP-2): inhibited expression
number of apoptotic cells in spleen and thymus sections (apoptotic cells): reduced the number of apoptotic cells
HMGB1 translocation to the cytoplasm (RAW 264.7 cells [1]): inhibited HMGB1 translocation to the cytoplasm
HMGB1 expression in septic mice (HMGB1): inhibited expression
LPS-induced expression of HMGB1 protein (RAW 264.7 cells [2]): inhibited LPS-induced expression of HMGB1 protein in a dose-dependent manner

CC(NC(=O)[C@H](Cc1ccccc1)NC(=O)OCc1ccccc1)C(=O)CF (some centres unmarked) [Z-FA-FMK]
LPS-induced expression of HMGB1 protein (RAW 264.7 cells [2]): did not have an effect on HMGB1 expression
